Patent US11883526B2 (priority 2019, dated 2024)

How the values were obtained:
[1] = single dose study, 72 mg intranasal
Experimental: This study includes a single dose and 14-day repeated dose neurotoxicity studies with intranasally administered esketamine in female rats 12 to 14 weeks of age. These studies were conducted to investigate whether single or repeated intranasal administrations of esketamine induced neurodegenerative changes in the rat brain. The study results were used to estimate an esketamine exposure-based safety margin compared with the maximum dose of esketamine administered intranasally to depressed adult patients in clinical trials.
The vehicle- and the 36 and 54 mg-dosed groups consisted of 24 animals per group, while the 72 mg-dosed and positive control groups involved 30 animals per group. Four satellite animals were added to the esketamine HCl-dosed groups of main study animals for toxicokinetic (TK) purposes. In these animals the plasma exposure to esketamine was measured on the day of dosing at various time points up to and including 24 hours after the first instillation.

[2] = test system: elderly subjects with TRD; format: in vivo, human; details: each dosing day
Description: The Modified Observer's Assessment of Alertness/Sedation (MOAA/S) was used to measure treatment-emergent sedation with correlation to levels of sedation defined by the American Society of Anesthesiologists (ASA) continuum. The MOAA/S scores range from 0 (No response to painful stimulus; corresponds to ASA continuum for general anesthesia) to 5 (Readily responds to name spoken in normal tone [awake]; corresponds to ASA continuum for minimal sedation). The proportion of subjects with sedation was <4% for the esketamine group for each dosing day.

[3] = test system: elderly subjects with TRD; details: US patients aged ≥65 years
Experimental: Safety evaluation included reported adverse events, clinical laboratory tests, vital sign measurements, physical examinations, electrocardiograms and nasal examinations. Safety was assessed via treatment emergent AEs (TEAEs).

[4] = test system: subjects with MDD at imminent risk for suicide; assay: Beck Scale for Suicidal Ideation, BSS ([…]2001); format: in vivo, human; details: 84 mg; for BSS total score change from baseline, Diff. of LS Means (minus Placebo): ANCOVA LOCF, ITT
Experimental: The BSS is a 21-item self-reported instrument to detect and measure the severity of suicidal ideation in adults and adolescents aged 17 years and older. The BSS total score represents the severity of suicide ideation, and it is calculated by summing the ratings of the first 19 items; the total score ranges from 0 to 38, with a higher score representing greater suicide ideation. Increasing scores reflect increases in suicidal risk.

adult subjects with TRD [5] = details: double-blind phase
Experimental: The CADSS is an instrument for the measurement of present-state dissociative symptoms, and was administered to assess treatment-emergent dissociative symptoms. The CADSS consists of 23 subjective items, divided into 3 components: Depersonalization (Items 3 to 7, 20, and 23), derealization (Items 1, 2, 8 to 13, 16 to 19, and 21) and amnesia (Items 14, 15, and 22). Participant's responses were coded on a 5-point scale (0=not at all through to 4=extremely).
(§1) The Clinician Administered Dissociative States Scale (CADSS) was measured prior to the start of each dose, at 40 minutes, and 1.5 hours postdose.

subjects with TRD = details: human, in vivo, other: intranasal
Experimental: FIGS. 53 and 54 present means for blood pressure over time by treatment group in the maintenance phase.
Transient blood pressure increases peaked for the esketamine group at approximately 40 minutes post dose and returned closer to predose levels by 1.5 hours post dose.

[6] = Pharmacokinetics assembled from 14 Phase 1 studies (Example 10); details: for Terminal t1/2 / AUClast / Cmax / tmax: young adult subjects; for Terminal t1/2: range across studies; for AUClast / Cmax: range of mean values; for tmax: range of median values
Experimental: The data herein was assembled from 14 Phase 1 studies; each Phase 1 study was performed similarly to the study outlined in Example 9 in which the PK of esketamine was assessed.

[7] = test system: subjects with MDD at imminent risk for suicide; details: 84 mg
Experimental: The CADSS was measured prior to the start of each dose, at 40 minutes, 2 hours, and 4 hours postdose.

[8] = test system: elderly subjects with TRD; details: double-blind phase
Experimental: as §1

[9] = test system: subjects with MDD at imminent risk for suicide; format: in vivo, human; details: 84 mg
Experimental: Transient blood pressure increases peaked for the esketamine group at approximately 40 minutes post dose with the maximum mean increases (across all dosing days) in systolic BP being 8.7 in the placebo group and 16.7 in the esketamine 84 mg group. The maximum mean increases (across all dosing days) in diastolic BP were 7.6 in the placebo group and 11.9 in the esketamine 84 mg group. […] See, FIGS. 46 and 47.

[10] = test system: patients with treatment-resistant depression (TRD); assay: MADRS total score, response, remission (phase 2 dose-response study, Example 7); format: in vivo, human; details: for MADRS total score, LS mean difference vs placebo (all dose groups): 28, 56, 84 mg; for Remitters, % / Responders, %: study period endpoint
Experimental: Efficacy was assessed with the Montgomery-Asberg Depression Rating Scale (MADRS; Montgomery, “A new depression scale designed to be sensitive to change”, Br. J. Psychiatry, 1979, 134:382-389; Williams, “Development and reliability of a structured interview guide for the Montgomery Asberg Depression Rating Scale (SIGMA)”, Br. J. Psychiatry, 2008, 192(1):52-58) on days 1 (pre-dose and 2 hour post-dose), 2, 8 (pre-dose), 9, and 15, using the structured interview guide (SIGMA). See, Williams 2008.
Efficacy data were analyzed in intent-to-treat (ITT) analysis sets for each period and phase. The ITT analysis sets included all participants who received at least 1 dose of study medication during that period or phase and had baseline and at least one post-baseline MADRS total score within that period or phase.
The primary efficacy endpoint—change from baseline (pre-dose, day 1 in each period) to endpoint (day 8 in each period) in MADRS total score—was analyzed using the analysis of covariance (ANCOVA) model. For Period 1, the model included treatment and country as factors, and baseline MADRS total score as covariate. For Period 2, the model included treatment and country as factors, Period 2 baseline QIDS-SR16 score (moderate or severe), and Period 2 baseline MADRS total score as a continuous covariate.
Given the consistency between Periods 1 and 2 results (Chi 2016), esketamine dose groups were compared to placebo using a combined test on the weighted test statistics for each period in the double-blind treatment phase. A dose-response analysis on primary efficacy endpoint was performed using data combined from both periods. The Multiple Comparison Procedure-Modelling (MCP-Mod) methodology was performed (Williams 2008; Bretz, “Combining multiple comparisons and modeling techniques in dose-response studies”, Biometrics, 2005, 61:738-748).

adult subjects with TRD [11] = details: US patients
Description: Adverse events were reported by the subject (or, when appropriate, by a caregiver, surrogate, or the subject's legally acceptable representative) for the duration of the study. Adverse events were followed by the investigator. TEAEs of special interest were examined separately.
The verbatim terms used in the eCRF by investigators to identify adverse events were coded using the MedDRA. All reported adverse events with onset during the double-blind induction phase (i.e., TEAEs, and adverse events that have worsened since baseline) were included in the analysis. For each adverse event, the percentage of subjects who experience at least 1 occurrence of the given event was summarized by treatment group. Adverse events occurring during the follow-up phase were summarized separately.
TEAEs of special interest were examined separately. AEs of special interest were listed in the SAP. Subjects who died, who discontinued treatment due to an adverse event, or who experienced a severe or a serious adverse event were summarized separately.
An adverse event is any untoward medical occurrence in a clinical study subject administered a medicinal (investigational or non-investigational) product. […]

glutamate NMDA receptor = details: in vitro; cited from earlier work

Structure (SMILES): CN[C@]1(c2ccccc2Cl)CCCCC1=O [esketamine, (S)-2-(2-chlorophenyl)-2-(methylamino)cyclohexanone]
- AUC-based safety margin compared with the maximum 84 mg clinical dose [1]: ~86 fold
- Cmax-based safety margin compared with the maximum 84 mg clinical dose [1]: approximately 60 fold
- proportion of subjects with sedation (post dose MOAA/S score ≤3) [2]: < 4%
- patients who withdrew the nasal spray [3]: 2 n
- change in BSS total score vs placebo ([4]; Day 1 4-hours postdose, Day 2 (DB), End Point (DB)): no statistically significant differences
- BSS total score change from baseline, Diff. of LS Means (minus Placebo) ([4]; Day 1(DB): 4 H): −2.3
- BSS total score change from baseline, Diff. of LS Means (minus Placebo) ([4]; Day 2(DB)): −1.9
- BSS total score change from baseline, Diff. of LS Means (minus Placebo) ([4]; End Point(DB)): −1.7
- dissociative and perceptual change symptoms (CADSS) resolved by (adult subjects with TRD [5]): ≤ 1.5 hours postdose
- blood pressure returned closer to predose levels by (subjects with TRD): ≤ 1.5 hours post dose
- time of peak of transient blood pressure increase post dose (subjects with TRD): approximately 40 minutes
- mean terminal t1/2 ([6]; nasal administration): 7 to 12 h
- Terminal t1/2 ([6]; single dose nasal spray 28 mg): 7.25 to 16.5 h
- AUClast ([6]; single dose nasal spray 28 mg): 128 to 183 ng·h/mL
- Cmax ([6]; single dose nasal spray 28 mg): 49.7 to 70.5 ng/mL
- tmax ([6]; single dose nasal spray 28 mg): 0.33 to 0.67 h
- Terminal t1/2 ([6]; single dose nasal spray 56 mg): 6.8 to 9.83 h
- AUClast ([6]; single dose nasal spray 56 mg): 216 to 317 ng·h/mL
- Cmax ([6]; single dose nasal spray 56 mg): 71.8 to 117 ng/mL
- tmax ([6]; single dose nasal spray 56 mg): 0.50 to 0.77 h
- Terminal t1/2 ([6]; single dose nasal spray 84 mg): 6.6 to 12.0 h
- AUClast ([6]; single dose nasal spray 84 mg): 310 to 489 ng·h/mL
- Cmax ([6]; single dose nasal spray 84 mg): 95.0 to 164 ng/mL
- tmax ([6]; single dose nasal spray 84 mg): 0.53 to 0.83 h
- dissociative and perceptual change symptoms (CADSS) resolved by [7]: ≤ 2 hours post dose
- dissociative and perceptual change symptoms (CADSS) resolved by [8]: ≤ 1.5 hours postdose
- blood pressure returning to normal range by [9]: ≤ 2 hours post dose
- maximum mean increase in diastolic BP ([9]; across all dosing days): 11.9
- maximum mean increase in systolic BP ([9]; across all dosing days): 16.7
- proportion of responders (≥50% improvement in MADRS) ([10]; 84 mg, Period 2 endpoint): 50.0%
- MADRS total score, LS mean difference vs placebo (all dose groups) ([10]; Period 1, baseline to day 8): −5.0 to −10.5
- Remitters, % ([10]; Period 1, 84 mg): (25.0) %
- Responders, % ([10]; Period 1, 84 mg): (41.7) %
- MADRS total score, LS mean difference vs placebo (all dose groups) ([10]; Period 2, day 8 to day 15): −3.1 to −6.9
- MADRS total score, LS mean change ([10]; Period 2, change at study period endpoint, 56 mg): −8.9
- Remitters, % ([10]; Period 2, 28 mg): (12.5) %
- Responders, % ([10]; Period 2, 28 mg): (12.5) %
- Remitters, % ([10]; Period 2, 84 mg): (20.0) %
- patients who withdrew from nasal spray drug (adult subjects with TRD [11]): 3 n
- affinity for the glutamate NMDA receptor relative to R-ketamine (glutamate NMDA receptor): 3 to 4 fold
